Assay results taken from ChEMBL document CHEMBL2203174, “SAR Development of Lysine-Based Irreversible Inhibitors of Transglutaminase 2 for Huntington's Disease” (ACS Med Chem Lett, 2012).
Converted amounts (≈) assume the structure as drawn. Peptide text beside a SMILES is read from it. * marks the point of attachment. Cbz = O=C(OCc1ccccc1)*; Acryloyl = C=CC(=O)*; OtBu = CC(C)(C)O*

How the values were obtained:
[1] = Apparent permeability of the compound across apical to basolateral side in wild type MDCK cells at 10 uM; type: ADME, cell-based, Canis lupus familiaris; conditions: dog
MDR1 = assay: Efflux ratio of permeability in MDCK cells expressing MDR1 at 10 uM; type: ADME, cell-based, Canis lupus familiaris; conditions: dog
[2] = Intrinsic clearance in human liver microsomes at 1 uM by LC-MS/MS analysis; type: ADME, Microsome; conditions: read-out: CLH
[3] = Half life in mouse plasma at 1 uM by LC-MS/MS analysis; type: ADME, cell-free
[4] = Half life in human plasma at 1 uM by LC-MS/MS analysis; type: ADME, cell-free
[5] = Kinetic solubility of the compound in PBS at pH 7.4 by LC-UV analysis; type: physicochemical; conditions: read-out: Kinetic_solubility
[6] = biological target: T1, Protein-glutamine gamma-glutamyltransferase 6 (Homo sapiens, UniProt O95932); assay: Inhibition of transglutaminase 6
T1 sequence (O95932 whole entry): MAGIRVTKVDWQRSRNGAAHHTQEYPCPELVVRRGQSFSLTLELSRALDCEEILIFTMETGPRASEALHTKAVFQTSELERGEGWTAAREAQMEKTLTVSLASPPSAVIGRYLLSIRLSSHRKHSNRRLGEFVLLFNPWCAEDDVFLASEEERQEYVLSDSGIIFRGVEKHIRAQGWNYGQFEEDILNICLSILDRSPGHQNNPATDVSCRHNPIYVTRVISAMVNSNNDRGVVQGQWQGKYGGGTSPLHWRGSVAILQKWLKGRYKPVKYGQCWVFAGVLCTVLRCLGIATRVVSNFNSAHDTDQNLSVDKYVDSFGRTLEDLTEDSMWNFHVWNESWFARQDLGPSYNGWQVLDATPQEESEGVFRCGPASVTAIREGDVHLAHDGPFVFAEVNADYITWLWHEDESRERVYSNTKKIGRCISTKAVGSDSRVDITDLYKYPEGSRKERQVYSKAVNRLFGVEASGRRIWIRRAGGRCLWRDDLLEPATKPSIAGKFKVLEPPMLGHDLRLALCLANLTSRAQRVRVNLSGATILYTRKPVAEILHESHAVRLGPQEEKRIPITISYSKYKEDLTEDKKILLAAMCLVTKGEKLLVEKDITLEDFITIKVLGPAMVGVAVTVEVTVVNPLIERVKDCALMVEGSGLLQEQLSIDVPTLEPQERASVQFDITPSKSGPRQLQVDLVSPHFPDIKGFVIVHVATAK

[7] = Half life in mouse liver microsomes; type: ADME, Microsome
[8] = Apparent permeability of the compound across basolateral to apical side in human Caco2 cells; type: ADME, cell-based; conditions: Caco-2
[9] = Apparent permeability of the compound across apical to basolateral side in human Caco2 cells; type: ADME, cell-based; conditions: Caco-2
[10] = Aqueous solubility of the compound; type: physicochemical; conditions: buffer
[11] = biological target: T2, Protein-glutamine gamma-glutamyltransferase 2 (Mus musculus, UniProt P21981); assay: Inhibition of mouse transglutaminase 2
T2 sequence (P21981 whole entry): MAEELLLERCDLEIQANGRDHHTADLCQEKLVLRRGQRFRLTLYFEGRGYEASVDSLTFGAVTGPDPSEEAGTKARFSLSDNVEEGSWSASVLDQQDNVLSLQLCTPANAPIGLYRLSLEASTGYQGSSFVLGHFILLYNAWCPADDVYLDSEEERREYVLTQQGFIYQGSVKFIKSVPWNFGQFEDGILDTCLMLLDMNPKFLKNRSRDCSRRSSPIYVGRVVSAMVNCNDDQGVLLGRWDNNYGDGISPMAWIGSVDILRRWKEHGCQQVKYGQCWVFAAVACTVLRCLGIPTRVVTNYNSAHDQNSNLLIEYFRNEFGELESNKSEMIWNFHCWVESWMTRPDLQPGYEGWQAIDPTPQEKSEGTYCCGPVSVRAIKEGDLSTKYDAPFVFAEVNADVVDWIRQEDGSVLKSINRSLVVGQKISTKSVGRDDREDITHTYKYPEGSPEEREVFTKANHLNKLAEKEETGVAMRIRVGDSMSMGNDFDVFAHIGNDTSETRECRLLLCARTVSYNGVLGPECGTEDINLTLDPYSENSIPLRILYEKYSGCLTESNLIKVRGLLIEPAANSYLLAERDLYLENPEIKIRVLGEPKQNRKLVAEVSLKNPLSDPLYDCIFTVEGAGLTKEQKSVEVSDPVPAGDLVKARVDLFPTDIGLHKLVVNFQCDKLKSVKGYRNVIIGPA

[12] = Intrinsic clearance in mouse liver microsomes at 1 uM by LC-MS/MS analysis; type: ADME, Microsome; conditions: read-out: CLH
[13] = Ratio of IC50 for mouse transglutaminase 2 to IC50 for human transglutaminase 2

| Papp A→B at 10 µM [1] [×10⁻⁶ cm/s] | efflux ratio at 10 µM (MDR1) | microsomal CLint at 1 µM [2] [µL/min/mg] | half-life at 1 µM [3] [h] | half-life at 1 µM [4] [h] | solubility kinetic [5] [µg/mL] | IC50 [6] [µM] | half-life [7] [min] | Papp B→A [8] [×10⁻⁶ cm/s] | Papp A→B [9] [×10⁻⁶ cm/s] | solubility [10] [µg/mL] | IC50 [11] [µM] | microsomal CLint at 1 µM [12] [µL/min/mg] | Ratio IC50 [13] | Structure (SMILES) |
| --- | --- | --- | --- | --- | --- | --- | --- | --- | --- | --- | --- | --- | --- | --- |
| 14.2 | 118 | > 1390 | > 24 | > 24 | 870 (≈ 1820 µM) | > 80 |  |  |  |  |  |  |  | C=CC(=O)NCCCC[C@H](NC(=O)Cc1ccccc1)C(=O)N1CCN(c2cccc(C)n2)CC1 |
|  |  |  |  |  |  | > 80 | 7 | 25 | 7.5 | 1490 (≈ 3330 µM) | 6.2 |  |  | C=CC(=O)NCCCC[C@H](NC(=O)OCc1ccccc1)C(=O)NCC(=O)OC(C)(C)C (Cbz-Lys(Acryloyl)-Gly-OtBu) |
| 30.3 | 7.1 | > 1390 | > 8 | > 8 | 60 (≈ 117 µM) | 69 |  |  |  |  |  | > 1390 | 2 | C=CC(=O)NCCCC[C@H](NC(=O)OCc1ccccc1)C(=O)N1CCN(c2ccccc2Cl)CC1 |
